Data from US7632972B2, “Compounds and methods for treatment of cancer and modulation of programmed cell death for melanoma and other cancer cells” (The Board of Trustees of the University of Illionis, priority 2003, dated 2009).

Assays:
Type in all cases: cell-based, human
OVCAR-3 = test: NCI 60 cell line screen (SRB), Ovarian Cancer
From the text: (§1) The operation of this screen utilizes 60 different human tumor cell lines, representing leukemia, melanoma and cancers of the lung, colon, brain, ovary, breast, prostate, and kidney. The aim is to prioritize for further evaluation, synthetic compounds or natural product samples showing selective growth inhibition or cell killing of particular tumor cell lines. This screen is unique in that the complexity of a 60 cell line dose response produced by a given compound results in a biological response pattern which can be utilized in pattern recognition algorithms. Using these algorithms, it is possible to assign a putative mechanism of action to a test compound, or to determine that the response pattern is unique and not similar to that of any of the standard prototype compounds included in the NCl database (see DTP Overview tab). In addition, following characterization of various cellular molecular targets in the 60 cell lines, it may be possible to select compounds most likely to interact with a specific molecular target.
(§2) The human tumor cell lines of the cancer screening panel are grown in RPMI 1640 medium containing 5% fetal bovine serum and 2 mM L-glutamine. For a typical screening experiment, cells are inoculated into 96 well microtiter plates in 100 μL at plating densities ranging from 5,000 to 40,000 cells/well depending on the doubling time of individual cell lines. After cell inoculation, the microtiter plates are incubated at 37° C., 5% CO2, 95% air and 100% relative humidity for 24 h prior to addition of experimental drugs.
(§3) After 24 h, two plates of each cell line are fixed in situ with TCA, to represent a measurement of the cell population for each cell line at the time of drug addition (Tz). Experimental drugs are solubilized in dimethyl sulfoxide at 400-fold the desired final maximum test concentration and stored frozen prior to use. At the time of drug addition, an aliquot of frozen concentrate is thawed and diluted to twice the desired final maximum test concentration with complete medium containing 50 μg/ml gentamicin. Additional four, 10-fold or ½ log serial dilutions are made to provide a total of five drug concentrations plus control. Aliquots of 100 μl of these different drug dilutions are added to the appropriate microtiter wells already containing 100 μl of medium, resulting in the required final drug concentrations.
(§4) Following drug addition, the plates are incubated for an additional 48 h at 37° C., 5% CO2, 95% air, and 100% relative humidity. For adherent cells, the assay is terminated by the addition of cold TCA. Cells are fixed in situ by the gentle addition of 50 μl of cold 50% (w/v) TCA (final concentration, 10% TCA) and incubated for 60 minutes at 4° C. The supernatant is discarded, and the plates are washed five times with tap water and air dried. Sulforhodamine B (SRB) solution (100 μl) at 0.4% (w/v) in 1% acetic acid is added to each well, and plates are incubated for 10 minutes at room temperature. After staining, unbound dye is removed by washing five times with 1% acetic acid and the plates are air dried. Bound stain is subsequently solubilized with 10 mM trizma base, and the absorbance is read on an automated plate reader at a wavelength of 515 nm. For suspension cells, the methodology is the same except that the assay is terminated by fixing settled cells at the bottom of the wells by gently adding 50 μl of 80% TCA (final concentration, 16% TCA). Using the seven absorbance measurements [time zero, (Tz), control growth, (C), and test growth in the presence of drug at the five concentration levels (Ti)], the percentage growth is calculated at each of the drug concentrations levels. Percentage growth inhibition is calculated as: [(Ti−Tz)/(C−Tz)]×100 for concentrations for which Ti>/=Tz [(Ti−Tz)/Tz]×100 for concentrations for which Ti<Tz.
(§5) Three dose response parameters are calculated for each experimental agent. […]

786-0 = test: NCI 60 cell line screen (SRB), Renal Cancer
From the text: as §1, §2, §3, §4, §5

ACHN = test: NCI 60 cell line screen (SRB), Renal Cancer
From the text: as §1, §2, §3, §4, §5

CAKI-1 = test: NCI 60 cell line screen (SRB), Renal Cancer
From the text: as §1, §2, §3, §4, §5

SN12C = test: NCI 60 cell line screen (SRB), Renal Cancer
From the text: as §1, §2, §3, §4, §5

TK-10 = test: NCI 60 cell line screen (SRB), Renal Cancer
From the text: as §1, §2, §3, §4, §5

UO-31 = test: NCI 60 cell line screen (SRB), Renal Cancer
From the text: as §1, §2, §3, §4, §5

[1] = read-out: LC50 (the source's name)

COc1cccc(CCNC(=O)CC(c2ccccc2)(c2ccccc2)c2ccccc2)c1 [Compound Z3]
GI50 (OVCAR-3; OVCAR-3): 4.77 µM | TGI (OVCAR-3; OVCAR-3): >1.00E−04 | Percent Growth (OVCAR-3; OVCAR-3, Log10 Concentration −4.0): 19% | Percent Growth (OVCAR-3; OVCAR-3, Log10 Concentration −5.0): 40% | Percent Growth (OVCAR-3; OVCAR-3, Log10 Concentration −6.0): 71% | Percent Growth (OVCAR-3; OVCAR-3, Log10 Concentration −7.0): 102% | Percent Growth (OVCAR-3; OVCAR-3, Log10 Concentration −8.0): 90% | CC50 (OVCAR-3; OVCAR-3, read-out: LC50 (the source's name)): > 100 µM | GI50 (786-0; 786-0): 10.6 µM | TGI (786-0; 786-0): >1.00E−04 | Percent Growth (786-0; 786-0, Log10 Concentration −4.0): 7% | Percent Growth (786-0; 786-0, Log10 Concentration −5.0): 51% | Percent Growth (786-0; 786-0, Log10 Concentration −6.0): 86% | Percent Growth (786-0; 786-0, Log10 Concentration −7.0): 98% | Percent Growth (786-0; 786-0, Log10 Concentration −8.0): 86% | CC50 (786-0; 786-0, read-out: LC50 (the source's name)): > 100 µM | GI50 (ACHN): 7.84 µM | TGI (ACHN): 9.48E−05 | Percent Growth (ACHN; Log10 Concentration −4.0): −1% | Percent Growth (ACHN; Log10 Concentration −5.0): 45% | Percent Growth (ACHN; Log10 Concentration −6.0): 94% | Percent Growth (ACHN; Log10 Concentration −7.0): 112% | Percent Growth (ACHN; Log10 Concentration −8.0): 102% | CC50 (ACHN; [1]): > 100 µM | GI50 (CAKI-1; CAKI-1): 3.16 µM | TGI (CAKI-1; CAKI-1): 5.09E−05 | Percent Growth (CAKI-1; CAKI-1, Log10 Concentration −4.0): −9% | Percent Growth (CAKI-1; CAKI-1, Log10 Concentration −5.0): 21% | Percent Growth (CAKI-1; CAKI-1, Log10 Concentration −6.0): 79% | Percent Growth (CAKI-1; CAKI-1, Log10 Concentration −7.0): 103% | Percent Growth (CAKI-1; CAKI-1, Log10 Concentration −8.0): 97% | CC50 (CAKI-1; CAKI-1, read-out: LC50 (the source's name)): > 100 µM | Percent Growth (SN12C; Log10 Concentration −4.0): 217% | Percent Growth (SN12C; Log10 Concentration −5.0): −14% | Percent Growth (SN12C; Log10 Concentration −6.0): 51% | Percent Growth (SN12C; Log10 Concentration −7.0): 84% | Percent Growth (SN12C; Log10 Concentration −8.0): 87% | CC50 (SN12C; [1]): > 100 µM | GI50 (TK-10; TK-10): 21.9 µM | TGI (TK-10; TK-10): 8.22E−05 | Percent Growth (TK-10; TK-10, Log10 Concentration −4.0): −7% | Percent Growth (TK-10; TK-10, Log10 Concentration −5.0): 80% | Percent Growth (TK-10; TK-10, Log10 Concentration −6.0): 133% | Percent Growth (TK-10; TK-10, Log10 Concentration −7.0): 128% | Percent Growth (TK-10; TK-10, Log10 Concentration −8.0): 117% | CC50 (TK-10; TK-10, read-out: LC50 (the source's name)): > 100 µM | GI50 (UO-31; UO-31): 4.75 µM | TGI (UO-31; UO-31): >1.00E−04 | Percent Growth (UO-31; UO-31, Log10 Concentration −4.0): 20% | Percent Growth (UO-31; UO-31, Log10 Concentration −5.0): 33% | Percent Growth (UO-31; UO-31, Log10 Concentration −6.0): 85% | Percent Growth (UO-31; UO-31, Log10 Concentration −7.0): 98% | Percent Growth (UO-31; UO-31, Log10 Concentration −8.0): 86% | CC50 (UO-31; UO-31, read-out: LC50 (the source's name)): > 100 µM
